Experimental data reported in PubChem BioAssay (NCI).
Several values for one entry are separate records, joined by “and”; a condition that tells them apart may be missing. Equal values may be shown once.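 Each compound was tested at five concentrations against cells in 96-well plates for 48 hours. At the GI50, growth is halved. At the TGI there is no net growth.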

How the values were obtained:
Assay in all cases: growth of human tumour cells (NCI), 48 h
[1] = system: DU-145 prostate
[2] = system: MALME-3M melanoma
[3] = system: MOLT-4 leukemia
[4] = system: KM12 colon
[5] = system: SK-OV-3 ovarian
[6] = system: OVCAR-3 ovarian
[7] = system: HCT-15 colon
[8] = system: SN12C renal
[9] = system: NCI-H522 lung
[10] = system: EKVX NSCLC

Compound | GI50 [1] [µM] | TGI [1] [µM] | GI50 [2] [µM] | TGI [2] | GI50 [3] [µM] | TGI [3] | GI50 [4] | TGI [4] | GI50 [5] [µM] | TGI [5] | GI50 [6] | TGI [6] | GI50 [7] [µM] | TGI [7] | GI50 [8] [µM] | TGI [8] | GI50 [9] [µM] | TGI [9] | GI50 [10] [µM] | TGI [10]
O=c1[nH]ccc2nc(-c3ccc(CN4CCC(c5nc(-c6ccccn6)n[nH]5)CC4)cc3)c(-c3ccccc3)cc12 | 22.3 | > 100 | 2.09 | 34.7 µM | 0.364 | 4.67 µM | 14.7 µM | > 100 µM | 0.124 | > 100 µM | 904 nM | > 66.3 µM | 16.5 | > 100 µM | 32.1 | > 100 µM | 22.2 | > 64.2 µM | 15.8 | > 100 µM
N#Cc1c(-c2ccc(Cl)cc2)c(-c2ccc(Cl)cc2)nn(CCOC(=O)CCC(=O)O)c1=O | – | 6.86 | – | 74.9 µM | – | 41.3 µM | – | 71.2 µM | – | 30.8 µM | – | 0.853 µM | – | 4.97 µM | – | > 60 µM | – | 4.88 µM | – | > 100 µM
CO/N=C(\COc1ccc2c(c1)oc(=O)c1cc(OC)ccc12)c1ccc(F)cc1 | 22.8 | 62.2 | 26.7 | 84.6 µM | 36.6 | > 100 µM | 33.7 µM | > 100 µM | 48.5 | > 100 µM | 16700 nM | 34.2 µM | 24.7 | 81.9 µM | 27.2 | > 100 µM | 13 | 32.5 µM | 35.2 | > 100 µM
COc1ccc(N(C)c2nc(Cl)nc3ccn(C)c23)cc1 | < 0.01 | > 100 | > 100 | > 100 µM | < 0.01 | > 100 µM | < 0.01 µM | > 100 µM | < 0.01 | > 100 µM | < 10 nM | > 100 µM | < 0.01 | > 100 µM | < 0.01 | > 100 µM | < 0.01 | < 0.01 µM | < 0.01 | > 100 µM
COc1cc2c3c(n(CCCNC(=O)OCC4c5ccccc5-c5ccccc54)c(=O)c2cc1OC)-c1cc2c(cc1C3=O)OCO2 | > 100 | > 100 | 93.3 | > 100 µM | 8.07 | > 34.6 µM | > 100 µM | > 100 µM | > 64.7 | > 100 µM | > 100000 nM | > 100 µM | > 63.2 | > 100 µM | > 100 | > 100 µM | 34.9 | > 100 µM | > 100 | > 100 µM
COc1ccc(/C(=N\O)c2cc(OC)c(OC)c(OC)c2)c(OC)c1N | 4.02 | > 100 | 8.5 | > 100 µM | 3.95 | > 100 µM | 2.11 µM | > 100 µM | 3.82 | > 100 µM | 2530 nM | 7.8 µM | 2.64 | > 100 µM | 7.9 | > 100 µM | 3.3 | > 100 µM | 5.96 | > 100 µM
Cn1c(=O)c2[nH]c(C3CC(=O)CC(c4nc5c([nH]4)c(=O)n(C)c(=O)n5C)N3)nc2n(C)c1=O (stereo not drawn) | – | > 100 | – | > 100 µM | – | > 100 µM | – | > 100 µM | – | > 100 µM | – | > 100 µM | – | > 100 µM | – | > 100 µM | – | > 100 µM | – | > 100 µM
N#CCC12CC=CCC1=C(O)C(=O)c1ccc(O)cc12 (stereo not drawn) | – | > 100 | – | > 100 µM | – | > 100 µM | – | > 100 µM | – | > 100 µM | – | > 100 µM | – | > 100 µM | – | > 100 µM | – | > 100 µM | – | > 100 µM
CC(C)(C)c1cn2cccc(C(=O)N3CCN(CC(=O)Nc4ccc(Cl)cc4C(=O)c4ccccc4Cl)CC3)c2n1 | 11.7 | 27.5 | 19.9 | 38.8 µM | 5.52 | > 100 µM | 5.68 µM | 22.4 µM | 27.5 | > 100 µM | 3710 nM | 15.5 µM | 4.81 | 32 µM | 10.6 | 35.4 µM | 12.7 | 52.3 µM | 5.79 | 66.7 µM
COc1cc(Nc2ncc3c(C)nc(-c4cccc(Oc5ccccc5)c4)n3n2)cc(OC)c1OC | 3.05 | > 25 | 5.32 | 18.7 µM | 7.46 | > 21.3 µM | 5.95 µM | > 25 µM | 1.74 | > 25 µM | 4640 nM | 11.2 µM | 2.5 | > 25 µM | 5.32 | > 21.6 µM | 4.94 | > 17.9 µM | 11.2 | > 25 µM
CNc1cccnc1/C=N/NC(N)=S | – | 3.89 | – | > 10 µM | – | > 10 µM | – | > 10 µM | – | > 10 µM | – | > 8.6 µM | – | > 7.32 µM | – | > 8.25 µM | – | > 10 µM | – | > 10 µM
CS(=O)(=O)Nc1cccc(-c2ccc3c(NC(=O)C4CC4)n[nH]c3c2)c1 | 6.82 | > 25 | > 4.93 | > 25 µM | 6.27 | > 25 µM | 1.39 µM | > 25 µM | 3.92 | 15.7 µM | 641 nM | 1.96 µM | 7.29 | > 25 µM | 5.25 | > 25 µM | 0.308 | – | > 24.1 | > 25 µM
O=C(Nc1cccc([N+](=O)[O-])c1)c1ccc2ccccc2c1O | 7.58 | > 100 | 1.58 | 6.28 µM | 3.4 | > 46.5 µM | 4.41 µM | > 81.2 µM | 7.05 | > 59.9 µM | 2610 nM | 8.83 µM | 9 | > 78.3 µM | 12 | > 93 µM | 1.89 | 6.96 µM | 2.9 | > 57.2 µM
Cc1cc(O)ccc1O | 17.4 | 31.6 | 15.8 | 31.1 µM | 5.24 | 37.7 µM | 26.2 µM | > 100 µM | 72.9 | > 100 µM | 14100 nM | 27.9 µM | 16.6 | 34.8 µM | 14.4 | 27.8 µM | 3.58 | 18.8 µM | 36.9 | > 100 µM
C/C1=C\CC[C@@]2(C)O[C@@H]2C[C@@H]2[C@H](C/C(C)=C/CC1)OC(=O)C21CCN=N1 (stereo partly drawn) | > 100 | > 100 | – | > 75 µM | > 100 | 75 µM and > 100 µM | > 100 µM | > 100 µM | – | > 75 µM | > 100000 nM | > 100 µM | > 100 | > 100 µM | > 100 | 75 µM and > 100 µM | – | 75 µM | > 100 | > 100 µM
Oc1ccc2ccccc2c1C(c1ccc(Cl)cc1)c1c(O)ccc2ccccc12 | – | 12.4 | – | 6.71 µM | – | 17.5 µM | – | 7.87 µM | – | 19.9 µM | – | 9.06 µM | – | > 30.2 µM | – | 9.72 µM | – | 5.17 µM | – | 7.58 µM
CC(C)=CC(O)C/C(C)=C/CC/C(C)=C/CCC1(C)C(CCCO)/C(=C(/C)C=O)CCC1(C)O (stereo not drawn) | – | > 100 | – | > 100 µM | – | 83.2 µM | – | 52.9 µM | – | > 100 µM | – | > 100 µM | – | > 100 µM | – | 76.2 µM | – | > 100 µM | – | > 100 µM
O=C(Nc1cccnc1)c1cccc([N+](=O)[O-])c1 | > 100 | > 100 | > 100 | > 100 µM | > 100 | > 100 µM | > 100 µM | > 100 µM | > 100 | > 100 µM | > 100000 nM | > 100 µM | > 100 | > 100 µM | > 100 | > 100 µM | > 100 | > 100 µM | > 100 | > 100 µM
C/C=C(\CCC1NCCc2c1[nH]c1ccccc21)[Si](C)(C)C (stereo not drawn) | – | 26.1 | – | 7.1 µM and 3.23 µM | – | 13.8 µM and 8.98 µM | 6.18 µM and 1.9 µM | 11.3 µM and 3.64 µM | – | 25.2 µM and 26.5 µM | 413 nM and 2910 nM | 2.39 µM and 7.41 µM | – | 32.7 µM and 5.08 µM | – | 11.8 µM and 10.4 µM | – | 27.9 µM and 4.96 µM | – | 28.6 µM and 22.1 µM
COc1cc2c3c(n(CCCCNC(=O)OCC4c5ccccc5-c5ccccc54)c(=O)c2cc1OC)-c1cc2c(cc1C3=O)OCO2 | 8.04 | > 100 | > 100 | > 100 µM | 0.281 | 1.81 µM | 22 µM | > 100 µM | > 100 | > 100 µM | 19800 nM | 62.5 µM | 12.9 | 80.3 µM | 10.7 | 93 µM | 11.1 | > 100 µM | 87.2 | > 100 µM
O=C1Nc2ccccc2/C1=C/c1cn(C(=O)c2c(Cl)cccc2Cl)c2ccccc12 | 2.72 | 9.24 | 2.61 | 14.9 µM | 2.82 | > 100 µM | 1.76 µM | 3.95 µM | 8.35 | 56.5 µM | 1650 nM | 3.65 µM | 3.46 | 22.6 µM | 4 | 19.3 µM | 4.22 | 17.5 µM | 2.83 | 16.3 µM
